{"source": "patent US7629375B2", "about": "“Cytoprotective compounds, pharmaceutical and cosmetic formulations, and methods” (Johnson & Johnson Consumer Companies, Inc., priority 2001, dated 2009)", "data": [{"test_system": "neonatal cardiomyocytes", "experiment": "Myocyte calcium-contractility assay", "assay_type": "cell-based, rat", "settings": "anaerobic chamber 16 hours in DMEM 1 mM glucose, reoxygenation two hours", "procedure": "A. Isolation and Culture of Primary Neonate Myocytes.\nThe following materials are employed: • 10× Heart Dissection Solution (HDS) contains the following components (g/l) in tissue grade water: NaCl, 68; HEPES, 47.6; NaH2PO4, 2; Glucose, 10; KCl, 4; MgSO4, 1, pH adjusted to 7.4. Prior to filter sterilization of diluted (1×HDS) solution, 10 mg phenol red is added to each 500 milliliters of medium. • Transferrin and Bovine Insulin (available from Life Technologies) are resuspended at a concentration of 4 mg/ml in tissue culture grade water. • DMEM-F12—DMEM/F12, powder, 1:1 containing glutamine and pyridoxine hydrochloride (available from Life Technologies). To one liter equivalent of the powder is added 2.43 g of sodium bicarbonate and 10 ml of 100× Penicillin/Streptomycin in 950 ml of tissue culture grade water with stirring. The pH is adjusted to 7.2 with 1M HCl and volume adjusted to 1 liter. The solution is filter sterilized, followed by the addition of 2.5 ml of 4 mg/ml Transferrin, 250 μl 4 mg/ml Insulin and 30.7 mg of bromodeoxyuridine. • DMEM-F12-5% FBS is also prepared for pre-coating the tissue culture plates and initial suspension of the cardiomyocyte pellet. • Collagenase solution-57.1 mg of collagenase is resuspended in 140 ml 1×HDS.\nTissue culture ware is pre-coated with DMEM-F12-5% FBS by incubating […] per well of a 96-well plate and 0.5 ml per 24-well plate at 37° C.\nTwo-day old rat pups are removed from their mothers and placed in a sterile container. Pups are dipped quickly into 70% alcohol, then decapitated and the body placed in an empty sterile tissue culture dish. An incision is made starting at the neck and progressing towards the belly, cutting through the sternum. The heart is removed and placed in a tissue culture dishes containing 1×HDS. The atria are trimmed, and the remaining ventricles are placed into a separate tissue culture dish containing 1×HDS, where they are sectioned into 3-4 pieces each. Ventricles are then transferred to a sterile 250 ml glass flask and the 1×HDS is removed. Twenty milliliters of pre-warmed collagenase solution is added to the ventricles, followed by incubation at 37° C. with shaking. After 20 minutes, the collagenase solution is removed and replaced with 20 ml fresh pre-warmed collagenase. Incubation is continued for an additional 20 minutes. At the end of the incubation, any tissue chunks are allowed to settle prior to removing the collagenase (containing the isolated cardiomyocytes) from the disrupted tissue pieces. The isolated myocytes are added to a 50 ml Falcon tube containing 2 ml Fetal Bovine Serum (FBS). The remaining tissue pieces are subjected to a second digestion by adding 20 ml fresh pre-warmed collagenase and incubating as above for 20 minutes. This second digest is then centrifuged at 1000 rpm for 5 minutes (tabletop centrifuge). The resulting supernatant is discarded, and the cell pellet is suspended with 4 ml FBS. The resulting cell suspension is placed in the incubator at 37° C. This step is repeated several additional times to harvest additional material.\nPercoll gradients are prepared by adding 2.5 ml of 10×HDS to 22.5 ml of Percoll (Life Technologies) with mixing (Percoll Stock). Top Gradient solution (11 ml Percoll Stock and 14 ml 1×HDS) and Bottom Gradient solution (13 ml Percoll Stock and 7 ml 1×HDS) are prepared. Four milliliters of the Top Gradient solution is transferred into 6×15 ml sterile Falcon tubes. Three milliliters of the Bottom Gradient solution is placed in each tube by inserting a serological pipette to the bottom of the tube and slowly adding the liquid.\nAll the digests (6) are pooled in one 50 ml Falcon tube and centrifuged on a tabletop centrifuge at 1000 rpm for 10 minutes. The supernatant is discarded, and the cell pellet is resuspended in 12 ml of 1×HDS. Two milliliters of the cell suspension is added to the top of each gradient. […]", "values": [{"smiles": "COCOc1cc(C=Cc2ccc([N+](=O)[O-])cc2)cc(CC=C(C)C)c1OCOC", "note": "[1,2-bis-methoxymethoxy-3-(3-methyl-but-2-enyl)-5-[2-(4-nitro-phenyl)-vinyl]-benzene]", "calcium transients (Fluo-4) in amounts indicative of ability guard against ischemic damage and maintain contractile function": "presence of calcium transients"}, {"smiles": "COCOc1cc(C=Cc2ccc([N+](=O)[O-])cc2)cc(OCOC)c1CC=C(C)C", "note": "[1,3-bis-methoxymethoxy-2-(3-methyl-but-2-enyl)-5-[2-(4-nitro-phenyl)-vinyl]-benzene]", "calcium transients (Fluo-4) in amounts indicative of ability guard against ischemic damage and maintain contractile function": "presence of calcium transients"}, {"smiles": "COCOc1cc(C=Cc2ccc([N+](=O)[O-])cc2)cc(OCOC)c1", "note": "[1,3-bis-methoxymethoxy-5-[2-(4-nitro-phenyl)-vinyl]-benzene]", "calcium transients (Fluo-4) in amounts indicative of ability guard against ischemic damage and maintain contractile function": "presence of calcium transients"}, {"smiles": "COCOc1cc(C=Cc2ccc([N+](=O)[O-])cc2)c(CC=C(C)C)c(OCOC)c1", "note": "[1,5-bis-methoxymethoxy-2-(3-methyl-but-2-enyl)-3-[2-(4-nitro-phenyl)-vinyl]-benzene]", "calcium transients (Fluo-4) in amounts indicative of ability guard against ischemic damage and maintain contractile function": "presence of calcium transients"}, {"smiles": "O=C(O)C(=O)C[n+]1ccc(C=Cc2ccc(O)c(O)c2)cc1.[Br-]", "note": "[1-(2-Carboxy-2-oxo-ethyl)-4-[2-(3,4-dihydroxy-phenyl)-vinyl]-pyridinium; bromide]", "calcium transients (Fluo-4) in amounts indicative of ability guard against ischemic damage and maintain contractile function": "presence of calcium transients"}, {"smiles": "COCOc1c(C/C=C(\\C)CCC=C(C)C)cc(C=Cc2ccc([N+](=O)[O-])cc2)cc1OC", "note": "[1-(3,7-dimethyl-octa-2,6-dienyl)-3-methoxy-2-methoxymethoxy-5-[2-(4-nitro-phenyl)-vinyl]-benzene]", "calcium transients (Fluo-4) in amounts indicative of ability guard against ischemic damage and maintain contractile function": "presence of calcium transients"}, {"smiles": "COCOc1c(Br)cc(C=Cc2ccc([N+](=O)[O-])cc2)cc1OC", "note": "[1-bromo-3-methoxy-2-methoxymethoxy-5-[2-(4-nitro-phenyl)-vinyl]-benzene]", "calcium transients (Fluo-4) in amounts indicative of ability guard against ischemic damage and maintain contractile function": "presence of calcium transients"}, {"smiles": "O=C(O)C[n+]1ccc(C=Cc2ccc(O)c(O)c2)cc1.[Br-]", "note": "[1-carboxymethyl-4-[2-(3,4-dihydroxy-phenyl)-vinyl]-pyridinium; bromide]", "calcium transients (Fluo-4) in amounts indicative of ability guard against ischemic damage and maintain contractile function": "presence of calcium transients"}, {"smiles": "COCOc1c(CC=C(C)C)cc(C=Cc2ccc([N+](=O)[O-])cc2)cc1OC", "note": "[1-methoxy-2-methoxymethoxy-3-(3-methyl-but-2-enyl)-5-[2-(4-nitro-phenyl)-vinyl]-benzene]", "calcium transients (Fluo-4) in amounts indicative of ability guard against ischemic damage and maintain contractile function": "presence of calcium transients"}, {"smiles": "Cc1cc(C=Cc2ccc([N+](=O)[O-])cc2)cc(C)c1O", "note": "[2,6-dimethyl-4-[2-(4-nitro-phenyl)-vinyl]-phenol]", "calcium transients (Fluo-4) in amounts indicative of ability guard against ischemic damage and maintain contractile function": "presence of calcium transients"}, {"smiles": "COCOc1cc(C=Cc2ccc([N+](=O)[O-])cc2)cc(OCOC)c1CC=C(C)CCC=C(C)C", "note": "[2-(3,7-dimethyl-octa-2,6-dienyl)-1,3-bis-methoxymethoxy-5-[2-(4-nitro-phenyl)-vinyl]-benzene]", "calcium transients (Fluo-4) in amounts indicative of ability guard against ischemic damage and maintain contractile function": "presence of calcium transients"}, {"smiles": "COCOc1ccc(C=Cc2nccs2)cc1OCOC", "note": "[2-[2-(3,4-bis-methoxymethoxy-phenyl)-vinyl]-thiazole]", "calcium transients (Fluo-4) in amounts indicative of ability guard against ischemic damage and maintain contractile function": "presence of calcium transients"}, {"smiles": "O=C1c2ccccc2C(=O)c2cc(C=Cc3ccc(O)c(O)c3)ccc21", "note": "[2-[2-(3,4-dihydroxy-phenyl)-vinyl]-anthraquinone]", "calcium transients (Fluo-4) in amounts indicative of ability guard against ischemic damage and maintain contractile function": "presence of calcium transients"}, {"smiles": "COc1cc(C=Cc2ccc([N+](=O)[O-])cc2)cc(Br)c1O", "note": "[2-bromo-6-methoxy-4-[2-(4-nitro-phenyl)-vinyl]-phenol]", "calcium transients (Fluo-4) in amounts indicative of ability guard against ischemic damage and maintain contractile function": "presence of calcium transients"}, {"smiles": "COCOc1ccc(C=CC=Cc2ccc([N+](=O)[O-])cc2)cc1OC", "note": "[2-methoxy-1-methoxymethoxy-4-[4-(4-nitro-phenyl)-buta-1,3-dienyl]-benzene]", "calcium transients (Fluo-4) in amounts indicative of ability guard against ischemic damage and maintain contractile function": "presence of calcium transients"}, {"smiles": "COc1cc(C=CC=Cc2ccc([N+](=O)[O-])cc2)ccc1O", "note": "[2-methoxy-4-[4-(4-nitro-phenyl)-buta-1,3-dienyl]-phenol]", "calcium transients (Fluo-4) in amounts indicative of ability guard against ischemic damage and maintain contractile function": "presence of calcium transients"}, {"smiles": "COCOc1ccc(C=C2C(=O)Oc3ccccc32)cc1OCOC", "note": "[3-(3,4-bis-methoxymethoxy-benzylidene)-3H-benzofuran-2-one]", "calcium transients (Fluo-4) in amounts indicative of ability guard against ischemic damage and maintain contractile function": "presence of calcium transients"}, {"smiles": "CC(C)(C)c1cc(C=C2C(=O)Oc3ccc(O)cc32)cc(C(C)(C)C)c1O", "note": "[3-(3,5-di-tert-butyl-4-hydroxy-benzylidene)-5-hydroxy-3H-benzofuran-2-one]", "calcium transients (Fluo-4) in amounts indicative of ability guard against ischemic damage and maintain contractile function": "presence of calcium transients"}, {"smiles": "O=[N+]([O-])C=Cc1ccc(O)c(O)c1", "note": "[4-(2-nitro-vinyl)-benzene-1,2-diol]", "calcium transients (Fluo-4) in amounts indicative of ability guard against ischemic damage and maintain contractile function": "presence of calcium transients"}, {"smiles": "CC1=NN(c2ccccc2)C(=O)C1=Cc1ccc(O)c(O)c1", "note": "[4-(3,4-dihydroxy-benzylidene)-5-methyl-2-phenyl-2,4-dihydro-pyrazol-3-one]", "calcium transients (Fluo-4) in amounts indicative of ability guard against ischemic damage and maintain contractile function": "presence of calcium transients"}, {"smiles": "COC(=O)c1ccc(C=Cc2ccc3[nH]cnc3c2)cc1", "note": "[4-[2-(1H-benzoimidazol-5-yl)-vinyl]-benzoic acid methyl ester]", "calcium transients (Fluo-4) in amounts indicative of ability guard against ischemic damage and maintain contractile function": "presence of calcium transients"}, {"smiles": "COCOc1ccc(C=Cc2ccnc(-c3cc(C)ccn3)c2)cc1OCOC", "note": "[4-[2-(3,4-bis-methoxymethoxy-phenyl)-vinyl]-4′-methyl-[2,2′]bipyridinyl]", "calcium transients (Fluo-4) in amounts indicative of ability guard against ischemic damage and maintain contractile function": "presence of calcium transients"}, {"smiles": "COCOc1ccc(/C=C/c2ccc(C(=O)N(CCO)CCO)cc2)cc1OCOC", "note": "[4-[2-(3,4-bis-methoxymethoxy-phenyl)-vinyl]-N,N-bis-(2-hydroxy-ethyl)-benzamide]", "calcium transients (Fluo-4) in amounts indicative of ability guard against ischemic damage and maintain contractile function": "presence of calcium transients"}, {"smiles": "COCOc1ccc(C=Cc2ccc(C(=O)OC)c(C(=O)OC)c2)cc1OCOC", "note": "[4-[2-(3,4-bis-methoxymethoxy-phenyl)-vinyl]-phthalic acid dimethyl ester]", "calcium transients (Fluo-4) in amounts indicative of ability guard against ischemic damage and maintain contractile function": "presence of calcium transients"}, {"smiles": "O=C(c1ccc(C=Cc2ccc(O)c(O)c2)cc1)N(CCO)CCO", "note": "[4-[2-(3,4-dihydroxy-phenyl)-vinyl]-N,N-bis-(2-hydroxy-ethyl)-benzamide]", "calcium transients (Fluo-4) in amounts indicative of ability guard against ischemic damage and maintain contractile function": "presence of calcium transients"}, {"smiles": "O=C(O)c1ccc(C=Cc2ccc(O)c(O)c2)cc1", "note": "[4-[2-(3,4-dihydroxy-phenyl)-vinyl]-benzoic acid]", "calcium transients (Fluo-4) in amounts indicative of ability guard against ischemic damage and maintain contractile function": "presence of calcium transients"}, {"smiles": "COC(=O)c1ccc(C=Cc2cc(C)c(O)c(C)c2)cc1", "note": "[4-[2-(4-hydroxy-3,5-dimethyl-phenyl)-vinyl]-benzoic acid methyl ester]", "calcium transients (Fluo-4) in amounts indicative of ability guard against ischemic damage and maintain contractile function": "presence of calcium transients"}]}]}
